The text below walks through data of PMC10609963, “Targeting Lactate Dehydrogenase-B as a Strategy to Fight Cancer: Identification of Potential Inhibitors by In Silico Analysis and In Vitro Screening” (Pharmaceutics, 2023).

Data set [1] concerns the target T1, Recombinant human LDH-B (Homo sapiens, UniProt P07195).
T1 construct: gene LDHB; commercial recombinant protein (R&D Systems); homotetramer (LDH-1)
Description: NBT/PMS end-point colorimetric assay, 96-well, lactate to pyruvate. Format: biochemical.

Data set [2] addresses T1, Recombinant human LDH-B. Put plainly: NBT/PMS colorimetric kinetics, mixed-model inhibition fit. It is filed as biochemical. An excerpt: NBT/PMS colorimetric kinetics, mixed-model inhibition fit on Recombinant human LDH-B
The test system of data set [3] is T2, NC(=O)c1ccc[n+]([C@@H]2O[C@H](COP(=O)(O)OP(=O)(O)OC[C@H]3O[C@@H](n4cnc5c(N)ncnc54)[C@H](O)[C@@H]3O)[C@@H](O)[C@H]2O)c1.
T2 construct: commercial recombinant protein (R&D Systems); homotetramer (LDH-1)
Description: NBT/PMS colorimetric kinetics, Michaelis-Menten fit. It is filed as biochemical, Homo sapiens. The settings on record: 25 mM sodium lactate, no inhibitor (control), pH 9.6, room temperature, varied: cofactor. An excerpt: (§1) NBT/PMS colorimetric kinetics, Michaelis-Menten fit on Recombinant human LDH-B

The subject of data set [4] is T3, C[C@H](O)C(=O)O.
T3 construct: commercial recombinant protein (R&D Systems); homotetramer (LDH-1)
The data set is described as above. It is filed as biochemical, Homo sapiens. Particulars: 1 mM NAD+, no inhibitor (control), pH 9.6, room temperature.
Description: as §1

pIC50, pKi: −log10 of the molar value. Like-named read-outs stand apart in the source and are kept apart here.

T1 sequence (P07195 2-334): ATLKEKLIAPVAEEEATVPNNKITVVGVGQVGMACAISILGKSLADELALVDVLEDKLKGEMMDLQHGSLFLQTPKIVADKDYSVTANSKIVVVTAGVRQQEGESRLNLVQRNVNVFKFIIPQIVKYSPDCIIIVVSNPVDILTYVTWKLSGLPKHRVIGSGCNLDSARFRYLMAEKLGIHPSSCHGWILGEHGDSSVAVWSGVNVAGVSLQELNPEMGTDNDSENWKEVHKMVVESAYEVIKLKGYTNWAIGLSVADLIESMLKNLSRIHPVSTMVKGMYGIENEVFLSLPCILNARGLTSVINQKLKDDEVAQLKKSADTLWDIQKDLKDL

In general, pIC50 refers to the IC50 on a negative log10 scale, so that one unit is a factor of ten. Turning to `Cc1cc(Nc2ncnc3ccc(NC4=NC(C)(C)CO4)cc23)ccc1Oc1ccn2ncnc2c1` [compound 1, Tucatinib], the pIC50 in data set [1] is 3.30. For the same molecule, the pKi in data set [2] (read-out: Tucatinib / Lactate) is 2.53.

On to `CNC(=O)c1ccc(-c2cnc3ncc(Cc4ccc5ncccc5c4)n3n2)cc1F` [compound 2, Capmatinib], for which the pIC50 in data set [1] is 3.29. Besides, in data set [2] (read-out: Capmatinib / Lactate), the pKi is 2.57.

The term Km denotes the substrate concentration at which the rate is half of its maximum. In general, Vmax refers to the rate approached at saturating substrate. For Recombinant human LDH-B (Homo sapiens), the Km was 0.311 mM in data set [3] and 18.5 mM in data set [4]. For the same molecule, the Vmax in data set [3] worked out at 1040 µM/min; in data set [4] it was 1050 µM/min.
